Biological target: EGFR (human) (UniProt P00533)
Sequence (P00533 whole entry, looked up): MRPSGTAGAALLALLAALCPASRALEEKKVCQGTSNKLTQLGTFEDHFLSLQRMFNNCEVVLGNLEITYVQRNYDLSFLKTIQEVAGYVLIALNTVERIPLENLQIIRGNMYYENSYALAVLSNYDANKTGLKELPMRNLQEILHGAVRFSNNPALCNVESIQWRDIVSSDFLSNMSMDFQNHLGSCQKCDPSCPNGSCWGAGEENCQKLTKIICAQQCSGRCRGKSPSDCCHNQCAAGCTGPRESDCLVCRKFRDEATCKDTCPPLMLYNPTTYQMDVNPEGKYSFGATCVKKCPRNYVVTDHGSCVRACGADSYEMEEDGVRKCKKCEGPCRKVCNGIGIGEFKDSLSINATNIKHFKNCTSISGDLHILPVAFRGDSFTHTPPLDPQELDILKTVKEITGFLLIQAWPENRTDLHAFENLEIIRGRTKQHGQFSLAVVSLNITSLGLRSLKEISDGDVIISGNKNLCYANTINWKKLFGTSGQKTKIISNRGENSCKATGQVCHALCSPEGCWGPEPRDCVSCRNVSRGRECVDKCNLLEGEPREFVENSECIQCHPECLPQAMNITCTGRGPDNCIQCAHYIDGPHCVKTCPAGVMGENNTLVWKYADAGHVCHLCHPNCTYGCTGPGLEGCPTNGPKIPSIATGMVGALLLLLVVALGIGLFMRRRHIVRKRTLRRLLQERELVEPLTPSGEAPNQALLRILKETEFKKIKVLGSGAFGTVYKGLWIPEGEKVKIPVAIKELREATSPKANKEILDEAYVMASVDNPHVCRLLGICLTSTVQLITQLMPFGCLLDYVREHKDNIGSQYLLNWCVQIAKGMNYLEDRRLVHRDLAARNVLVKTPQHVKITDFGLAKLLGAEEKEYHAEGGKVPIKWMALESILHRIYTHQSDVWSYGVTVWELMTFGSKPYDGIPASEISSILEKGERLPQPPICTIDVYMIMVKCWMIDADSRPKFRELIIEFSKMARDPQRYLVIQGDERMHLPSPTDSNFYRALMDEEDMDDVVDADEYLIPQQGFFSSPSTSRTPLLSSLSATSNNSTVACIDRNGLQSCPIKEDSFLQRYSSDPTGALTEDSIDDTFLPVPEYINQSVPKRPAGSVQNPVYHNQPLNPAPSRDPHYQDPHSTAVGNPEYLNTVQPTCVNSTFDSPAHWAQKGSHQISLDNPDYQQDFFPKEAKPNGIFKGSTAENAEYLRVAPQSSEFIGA

Structure (SMILES) | Ki
c1ccc(CCNc2ccnc3[nH]c4ccccc4c23)cc1 | 1040 nM
COc1ccc(CNc2ccnc3[nH]c4ccccc4c23)cc1 | 450 nM
c1cncc(CNc2ccnc3[nH]c4ccccc4c23)c1 | 3830 nM
C[C@@H](Nc1ccnc2[nH]c3ccccc3c12)c1ccccc1 | 840 nM
Clc1ccc(CNc2ccnc3[nH]c4ccccc4c23)cc1 | 1040 nM

Now those with a lower Ki, led by results:

Ki | Structure (SMILES)
85 nM | c1ccc(CNc2ccnc3[nH]c4ccccc4c23)cc1
43 nM | Brc1ccc2[nH]c3nccc(NCc4ccccc4)c3c2c1
99 nM | Clc1cccc(CNc2ccnc3[nH]c4ccccc4c23)c1
30 nM | C[C@H](Nc1ccnc2[nH]c3ccccc3c12)c1ccccc1
360 nM | c1ccc2c(CNc3ccnc4[nH]c5ccccc5c34)cccc2c1

Source: the Kinase Knowledgebase extract (Sharma et al. 2016)
